# Test results: ChEMBL document CHEMBL4699537, “Chalcones as Modulators of Neutrophil Oxidative Burst under Physiological and High Glucose Conditions” (J Nat Prod, 2020)
# Test system: Neutrophil
# Experiment: Effect on cell viability in human neutrophils assessed as death cell at 100 uM in presence of 5.5 mM glucose after 1 hr by Propidium staining based flow cytometric analysis (reference value: 0.5 +/- 0.07 %)
# Conditions: not given
row,Compound,Activity [%]
1,O=C(/C=C/c1ccccc1)c1ccccc1 [CHALCONE],0.6

# Test system: Neutrophil
# Experiment: Effect on cell viability in human neutrophils assessed as death cell at 6.3 uM in presence of 5.5 mM glucose after 1 hr by Propidium staining based flow cytometric analysis (reference value: 0.5 +/- 0.07 %)
# Conditions: not given
row,Compound,Activity [%]
1,COc1cc(/C=C/C(=O)c2ccccc2O)ccc1O,0.4

# Test system: Neutrophil
# Experiment: Effect on cell viability in human neutrophils assessed as death cell at 100 uM in presence of 30 mM glucose after 1 hr by Propidium staining based flow cytometric analysis (reference value: 0.8 +/- 0.13 %)
# Conditions: not given
row,Compound,Activity [%]
1,O=C(/C=C/c1ccccc1)c1ccccc1 [CHALCONE],5

# Test system: Neutrophil
# Experiment: Effect on cell viability in human neutrophils assessed as death cell at 6.3 uM in presence of 30 mM glucose after 1 hr by Propidium staining based flow cytometric analysis (reference value: 0.8 +/- 0.13 %)
# Conditions: not given
row,Compound,Activity [%]
1,COc1cc(/C=C/C(=O)c2ccccc2O)ccc1O,0.4

# Test system: Neutrophil
# Experiment: Effect on cell viability in human neutrophils assessed as decrease in cell viability at 50 uM after 1 hr by Propidium staining based flow cytometric analysis
# Conditions: not given
row,Compound,Activity
1,O=C(/C=C/c1ccc(O)cc1)c1ccccc1 [4-HYDROXYCHALCONE],Non-Toxic
2,O=C(/C=C/c1ccccc1)c1ccccc1 [CHALCONE],Non-Toxic
3,COc1cc(/C=C/C(=O)c2ccccc2O)cc(OC)c1OC,Non-Toxic
4,COc1ccc(/C=C/C(=O)c2ccccc2O)cc1OC,Non-Toxic
5,"O=C(/C=C/c1ccc(O)c(O)c1)c1c(O)cc(O)cc1O [3,4,2',4',6'-PENTAHYDROXYCHALCONE]",Non-Toxic
6,O=C(/C=C/c1ccc(O)cc1)c1ccccc1O,Non-Toxic
7,O=C(/C=C/c1ccccc1O)c1ccccc1,Non-Toxic

# Test system: Neutrophil
# Experiment: Effect on cell viability in human neutrophils assessed as decrease in cell viability at 12.5 uM after 1 hr by Propidium staining based flow cytometric analysis
# Conditions: not given
row,Compound,Activity
1,Cc1cccc(/C=C/C(=O)c2ccccc2O)c1,Non-Toxic
2,O=C(/C=C/c1ccc(Cl)cc1)c1ccccc1 [4-CHLORO CHALCONE],Non-Toxic
3,O=C(/C=C/c1ccc(O)cc1O)c1ccc(O)cc1O,Non-Toxic
4,COc1ccc(/C=C/C(=O)c2ccc(O)cc2O)cc1OC,Non-Toxic
5,COc1ccc(/C=C/C(=O)c2ccc(O)cc2O)cc1,Non-Toxic
6,O=C(/C=C/c1ccc(Cl)cc1Cl)c1ccccc1O,Non-Toxic

# Test system: Neutrophil
# Experiment: Effect on cell viability in human neutrophils assessed as decrease in cell viability at 6.3 uM after 1 hr by Propidium staining based flow cytometric analysis
# Conditions: not given
row,Compound,Activity
1,COc1cc(/C=C/C(=O)c2ccccc2O)ccc1O,Non-Toxic
2,COc1ccccc1/C=C/C(=O)c1ccccc1O,Non-Toxic

# Test system: Neutrophil
# Experiment: Effect on cell viability in human neutrophils assessed as decrease in cell viability at 3.1 uM after 1 hr by Propidium staining based flow cytometric analysis
# Conditions: not given
row,Compound,Activity
1,COc1cc(O)c(C(=O)/C=C/c2cc(OC)c(OC)c(OC)c2)c(OC)c1,Non-Toxic
2,Cc1cc(C)c(/C=C/C(=O)c2ccccc2O)c(C)c1,Non-Toxic
3,COc1ccc(/C=C/C(=O)c2c(O)cc(OC)cc2OC)cc1 [FLAVOKAWAIN A],Non-Toxic

# Test system: Neutrophil
# Experiment: Effect on cell viability in human neutrophils assessed as decrease in cell viability at 25 uM after 1 hr by Propidium staining based flow cytometric analysis
# Conditions: not given
row,Compound,Activity
1,O=C(/C=C/c1ccc(O)cc1O)c1ccccc1,Non-Toxic
2,O=C(/C=C/c1ccccc1O)c1ccccc1O,Non-Toxic
3,COc1cccc(/C=C/C(=O)c2ccccc2O)c1,Non-Toxic
4,COc1ccc(/C=C/C(=O)c2ccccc2O)cc1,Non-Toxic

# Test system: Neutrophil
# Experiment: Effect on cell viability in human neutrophils assessed as decrease in cell viability at 100 uM after 1 hr by Propidium staining based flow cytometric analysis
# Conditions: not given
row,Compound,Activity
1,COc1ccc(/C=C/C(=O)c2ccccc2)cc1OC,Non-Toxic
2,COc1cc(O)c(C(=O)/C=C/c2ccc(OC)c(OC)c2)c(OC)c1,Non-Toxic
3,O=C(/C=C/c1cccc(O)c1)c1ccccc1 [3-HYDROXY CHALCONE],Non-Toxic

# Test system: not listed separately
# Experiment: Inhibition of PMA-induce ROS/RNS generation in human neutrophils measured up to 30 mins in presence of 5.5 mM glucose by luminol-amplified chemiluminescence method
# Assay type: functional, tissue-based
# Conditions: Neutrophil, 0.5 h
row,Compound,IC50 [µM]
1,Cc1cccc(/C=C/C(=O)c2ccccc2O)c1,2.8
2,O=C(/C=C/c1ccc(O)cc1)c1ccccc1 [4-HYDROXYCHALCONE],8.8
3,COc1ccc(/C=C/C(=O)c2ccccc2)cc1OC,15
4,COc1cc(O)c(C(=O)/C=C/c2ccc(OC)c(OC)c2)c(OC)c1,78
5,O=C(/C=C/c1ccc(Cl)cc1)c1ccccc1 [4-CHLORO CHALCONE],5.4
6,O=C(/C=C/c1ccc(O)cc1O)c1ccc(O)cc1O,2.9
7,COc1ccc(/C=C/C(=O)c2ccc(O)cc2O)cc1OC,6.4
8,O=C(/C=C/c1ccc(O)cc1O)c1ccccc1,13
9,COc1cc(/C=C/C(=O)c2ccccc2O)ccc1O,1
10,O=C(/C=C/c1ccccc1)c1ccccc1 [CHALCONE],13
11,O=C(/C=C/c1ccccc1O)c1ccccc1O,5.8
12,COc1cc(/C=C/C(=O)c2ccccc2O)cc(OC)c1OC,3.4
13,O=C(/C=C/c1cccc(O)c1)c1ccccc1 [3-HYDROXY CHALCONE],27
14,COc1ccc(/C=C/C(=O)c2ccccc2O)cc1OC,6.4
15,"O=C(/C=C/c1ccc(O)c(O)c1)c1c(O)cc(O)cc1O [3,4,2',4',6'-PENTAHYDROXYCHALCONE]",4.4
16,COc1cccc(/C=C/C(=O)c2ccccc2O)c1,3
17,O=C(/C=C/c1ccc(O)cc1)c1ccccc1O,1.6
18,O=C(/C=C/c1ccccc1O)c1ccccc1,6.7

# Test system: not listed separately
# Experiment: Inhibition of PMA-induce ROS/RNS generation in human neutrophils at 6.3 uM measured up to 30 mins in presence of 5.5 mM glucose by luminol-amplified chemiluminescence method relative to control
# Assay type: functional, Neutrophil
# Conditions: time min <=30
row,Compound,Imax [%]
1,COc1ccccc1/C=C/C(=O)c1ccccc1O,50
2,COc1cc(O)c(C(=O)/C=C/c2cc(OC)c(OC)c(OC)c2)c(OC)c1,25
3,Cc1cc(C)c(/C=C/C(=O)c2ccccc2O)c(C)c1,26

# Test system: not listed separately
# Experiment: Inhibition of PMA-induce ROS/RNS generation in human neutrophils at 12.5 uM measured up to 30 mins in presence of 5.5 mM glucose by luminol-amplified chemiluminescence method relative to control
# Assay type: functional, Neutrophil
# Conditions: time min <=30
row,Compound,Imax [%]
1,COc1ccc(/C=C/C(=O)c2ccc(O)cc2O)cc1,46
2,O=C(/C=C/c1ccc(Cl)cc1Cl)c1ccccc1O,30

# Test system: not listed separately
# Experiment: Inhibition of PMA-induce ROS/RNS generation in human neutrophils at 3.1 uM measured up to 30 mins in presence of 5.5 mM glucose by luminol-amplified chemiluminescence method relative to control
# Assay type: functional, Neutrophil
# Conditions: time min <=30
row,Compound,Imax [%]
1,COc1ccc(/C=C/C(=O)c2c(O)cc(OC)cc2OC)cc1 [FLAVOKAWAIN A],13

# Test system: not listed separately
# Experiment: Inhibition of PMA-induce ROS/RNS generation in human neutrophils at 25 uM measured up to 30 mins in presence of 5.5 mM glucose by luminol-amplified chemiluminescence method relative to control
# Assay type: functional, Neutrophil
# Conditions: time min <=30
row,Compound,Imax [%]
1,COc1ccc(/C=C/C(=O)c2ccccc2O)cc1,50

# Test system: not listed separately
# Experiment: Inhibition of PMA-induce ROS/RNS generation in human neutrophils measured up to 30 mins in presence of 30 mM glucose by luminol-amplified chemiluminescence method
# Assay type: functional, tissue-based
# Conditions: Neutrophil, 0.5 h
row,Compound,IC50 [µM]
1,O=C(/C=C/c1ccc(O)cc1)c1ccccc1 [4-HYDROXYCHALCONE],11.6
2,COc1ccc(/C=C/C(=O)c2ccccc2)cc1OC,20
3,COc1cc(O)c(C(=O)/C=C/c2ccc(OC)c(OC)c2)c(OC)c1,74
4,O=C(/C=C/c1ccc(Cl)cc1)c1ccccc1 [4-CHLORO CHALCONE],5.3
5,O=C(/C=C/c1ccc(O)cc1O)c1ccc(O)cc1O,3
6,COc1ccc(/C=C/C(=O)c2ccc(O)cc2O)cc1OC,7
7,O=C(/C=C/c1ccc(O)cc1O)c1ccccc1,12
8,COc1cc(/C=C/C(=O)c2ccccc2O)ccc1O,2
9,O=C(/C=C/c1ccccc1)c1ccccc1 [CHALCONE],27
10,O=C(/C=C/c1ccccc1O)c1ccccc1O,5.8
11,COc1cc(/C=C/C(=O)c2ccccc2O)cc(OC)c1OC,3
12,O=C(/C=C/c1cccc(O)c1)c1ccccc1 [3-HYDROXY CHALCONE],22.3
13,COc1ccc(/C=C/C(=O)c2ccccc2O)cc1OC,15
14,"O=C(/C=C/c1ccc(O)c(O)c1)c1c(O)cc(O)cc1O [3,4,2',4',6'-PENTAHYDROXYCHALCONE]",5
15,COc1cccc(/C=C/C(=O)c2ccccc2O)c1,5.7
16,O=C(/C=C/c1ccc(O)cc1)c1ccccc1O,1.5
17,O=C(/C=C/c1ccccc1O)c1ccccc1,5

# Test system: not listed separately
# Experiment: Inhibition of PMA-induce ROS/RNS generation in human neutrophils at 6.3 uM measured up to 30 mins in presence of 30 mM glucose by luminol-amplified chemiluminescence method relative to control
# Assay type: functional, Neutrophil
# Conditions: time min <=30
row,Compound,Imax [%]
1,COc1ccccc1/C=C/C(=O)c1ccccc1O,34

# Test system: not listed separately
# Experiment: Inhibition of PMA-induce ROS/RNS generation in human neutrophils at 12.5 uM measured up to 30 mins in presence of 30 mM glucose by luminol-amplified chemiluminescence method relative to control
# Assay type: functional, Neutrophil
# Conditions: time min <=30
row,Compound,Imax [%]
1,Cc1cccc(/C=C/C(=O)c2ccccc2O)c1,47
2,COc1ccc(/C=C/C(=O)c2ccc(O)cc2O)cc1,44
3,O=C(/C=C/c1ccc(Cl)cc1Cl)c1ccccc1O,28

# Test system: not listed separately
# Experiment: Inhibition of PMA-induce ROS/RNS generation in human neutrophils at 3.1 uM measured up to 30 mins in presence of 30 mM glucose by luminol-amplified chemiluminescence method relative to control
# Assay type: functional, Neutrophil
# Conditions: time min <=30
row,Compound,Imax [%]
1,COc1cc(O)c(C(=O)/C=C/c2cc(OC)c(OC)c(OC)c2)c(OC)c1,18
2,Cc1cc(C)c(/C=C/C(=O)c2ccccc2O)c(C)c1,25
3,COc1ccc(/C=C/C(=O)c2c(O)cc(OC)cc2OC)cc1 [FLAVOKAWAIN A],19

# Test system: not listed separately
# Experiment: Inhibition of PMA-induce ROS/RNS generation in human neutrophils at 25 uM measured up to 30 mins in presence of 30 mM glucose by luminol-amplified chemiluminescence method relative to control
# Assay type: functional, Neutrophil
# Conditions: time min <=30
row,Compound,Imax [%]
1,COc1ccc(/C=C/C(=O)c2ccccc2O)cc1,32

# Test system: not listed separately
# Experiment: Ratio of IC50 for inhibition of PMA-induce ROS/RNS generation in human neutrophils measured up to 30 mins in presence of 30 mM glucose to IC50 for inhibition of PMA-induce ROS/RNS generation in human neutrophils measured up to 30 mins in presence of 5.5 mM glucose
# Assay type: functional, Neutrophil
# Conditions: not given
row,Compound,Ratio IC50
1,Cc1cccc(/C=C/C(=O)c2ccccc2O)c1,2
2,O=C(/C=C/c1ccccc1)c1ccccc1 [CHALCONE],2
3,COc1ccc(/C=C/C(=O)c2ccccc2O)cc1OC,2
4,COc1cccc(/C=C/C(=O)c2ccccc2O)c1,2

# Test system: not listed separately
# Experiment: Inhibition of PMA-induce NET production in human neutrophils at 50 uM incubated for 30 mins in presence of 30 mM glucose by SytoxGreen staining based fluorescence assay relative to control
# Assay type: functional
# Conditions: Neutrophil, 0.5 h
row,Compound,inhibition at 50 µM [%]
1,"O=C(/C=C/c1ccc(O)c(O)c1)c1c(O)cc(O)cc1O [3,4,2',4',6'-PENTAHYDROXYCHALCONE]",48

# Test system: Neutrophil
# Experiment: Inhibition of PMA-induce NET production in human neutrophils incubated for 30 mins in presence of 30 mM glucose by SytoxGreen staining based fluorescence assay
# Assay type: functional, tissue-based
# Conditions: not given
row,Compound,inhibition
1,"O=C(/C=C/c1ccc(O)c(O)c1)c1c(O)cc(O)cc1O [3,4,2',4',6'-PENTAHYDROXYCHALCONE]",Dose-dependent effect
